The values below come from US5262431A, “Prolinal derivatives and pharmaceutical compositions thereof” (Ono Pharmaceutical Co., Ltd., priority 1986, dated 1993).

Where two headings read alike, the source gives them in different places. Peptide text beside a SMILES is read from it. * marks the point of attachment. Cbz = O=C(OCc1ccccc1)*; CH2Cl = ClC*

For assay [1], the target named is T1, prolyl endopeptidase (Bos taurus, UniProt Q9XTA2).
T1 construct: prolyl endopeptidase which was purified from bovine brain; from tissue; host or cells: bovine brain
T1 sequence (Q9XTA2 1-710): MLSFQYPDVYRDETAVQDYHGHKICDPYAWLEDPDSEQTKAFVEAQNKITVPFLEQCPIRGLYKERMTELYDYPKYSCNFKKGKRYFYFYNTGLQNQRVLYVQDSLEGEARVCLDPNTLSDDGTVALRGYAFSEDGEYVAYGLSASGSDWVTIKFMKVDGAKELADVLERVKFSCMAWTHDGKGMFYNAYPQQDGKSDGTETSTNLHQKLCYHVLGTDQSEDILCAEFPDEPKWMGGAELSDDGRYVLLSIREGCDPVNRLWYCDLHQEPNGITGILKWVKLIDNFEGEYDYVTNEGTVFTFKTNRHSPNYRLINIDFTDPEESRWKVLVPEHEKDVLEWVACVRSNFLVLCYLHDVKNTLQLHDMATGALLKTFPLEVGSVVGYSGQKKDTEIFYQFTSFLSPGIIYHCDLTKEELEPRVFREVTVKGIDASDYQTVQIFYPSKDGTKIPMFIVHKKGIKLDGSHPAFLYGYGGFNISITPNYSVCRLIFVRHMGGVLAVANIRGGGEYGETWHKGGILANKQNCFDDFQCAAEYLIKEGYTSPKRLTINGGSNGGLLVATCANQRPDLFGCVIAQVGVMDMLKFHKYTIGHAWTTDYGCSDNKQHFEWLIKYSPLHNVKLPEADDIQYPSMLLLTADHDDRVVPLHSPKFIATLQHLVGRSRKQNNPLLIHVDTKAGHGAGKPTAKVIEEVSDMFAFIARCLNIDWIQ
Description: Prolyl endopeptidase inhibitory activity in vitro. The format is biochemical, bovine. On the procedure:
Prolyl Endopeptidase Inhibitory Activity In Vitro
Inhibitory activity of prolyl endopeptidase in vitro was measured by the following test system.
A mixed solution of 20 mM tris-HCl buffer (pH 7.5; 935 μl; containing 10 mM EDTA and 10 mM mercaptoethanol), a solution of a compound of the present invention In DMSO (10 μl) and a solution of prolyl endopeptidase which was purified from bovine brain (0.13 unit; prepared by the method described in J. Biochem., 94, 1179 (1983)) in tris-HCl buffer (15 μl) was preincubated for 15 mins at 37° C.
To the solution, 5 mM of N-benzyloxycarbonyl-glycyl-prolyl-p-nitroanilide (40 μl) in a mixture of 40% dioxane-60% water was added. The solution was incubated for 1 min at the same temperature.
Optical absorption (a1) at 405 nm of the solution, and optical absorption (a2) at 405 nm of the solution after more 30 mins' incubation at 37° C. were measured.
Optical absorptions (b1 and b2) of the solutions using DMSO instead of the solution of the compound of the present invention were also measured.
Inhibitory ratio was calculated by the following expression and IC50 (required concentration for 50% inhibition) was obtained (See Protein, Nucleic acid and Enzyme 25(6), 513, 1980.). [formula]

Assay [2] deals with prolyl endopeptidase. Conditions: literature; cited from earlier work.
Where [3] appears, read: read-out: Concentration for 50% inhibition IC50, Table II, formula (Ib), purified from bovine brain, pH 7.5, 37° C.

Regarding `O=C[C@@H]1CCCN1C(=O)C(CCCCCc1ccccc1)c1ccccc1` (some centres unmarked), the IC50 on prolyl endopeptidase [1] (setting [3]) is 610 nM.

With `O=C[C@@H]1CCCN1C(=O)C(CCCCc1ccccc1)C1CCCCC1` (some centres unmarked), the IC50 at prolyl endopeptidase [1] (setting [3]) came to 690 nM.

In turn, `COc1ccc(CCCCCC(C(=O)N2CCC[C@H]2C=O)C(C)C)cc1` (some centres unmarked) registered an IC50 against prolyl endopeptidase [1] of 170 nM.

For the compound `O=C[C@@H]1CCCN1C(=O)[C@@H]1CCC[C@H]1CCCCc1ccccc1` (relative stereo) [Example 2, N-[DL-Trans-2-(4-Phenylbutyl)Cyclopentanecarbonyl] -L-prolinal], the IC50 on prolyl endopeptidase [1] was found to be 130 nM.

On to `CC(C)C(CCCc1ccccc1)C(=O)N1CCC[C@H]1C=O` (stereo partly drawn) [1(a), N-(2-isopropyl-5-phenyl-pentanoyl)-L-prolinal], for which, on prolyl endopeptidase [1], the IC50 came out at 370 nM.

Turning to `CC(C)C(CCCCCc1ccccc1)C(=O)N1CCC[C@H]1C=O` (stereo partly drawn) [1(b), N-(2-isopropyl-7-phenyl-heptanoyl)-L-prolinal], the IC50 against prolyl endopeptidase [1] is 80 nM.

Consider `CC(C)C(CCCCCCc1ccccc1)C(=O)N1CCC[C@H]1C=O` (stereo partly drawn) [1(c), N-(2-isopropyl-8-phenyl-octanoyl)-L-prolinal], for which, at prolyl endopeptidase [1], the IC50 was found to be 190 nM.

`CC(C)C(CCCCCCCc1ccccc1)C(=O)N1CCC[C@H]1C=O` (stereo partly drawn) [1(d), N-(2-isopropyl-9-phenyl-nonanoyl)-L-prolinal] registered an IC50 against prolyl endopeptidase [1] of 230 nM.

The compound `CC(C)C(CCCCCCCCc1ccccc1)C(=O)N1CCC[C@H]1C=O` (stereo partly drawn) [1(e), N-(2-isopropyl-10-phenyldecanoyl)-L-prolinal] came in with an IC50 on prolyl endopeptidase [1] of 120 nM.

The compound `CC(C)C(CCCCc1ccccc1)C(=O)N1CCC[C@H]1C=O` (stereo partly drawn) [Example 1, N-(2-Isopropyl-6-Phenylhexanoyl)-L-Prolinal] gave an IC50 against prolyl endopeptidase [1] of 280 nM.

Regarding `CC(C)C(CCc1ccccc1)C(=O)N1CCC[C@H]1C=O` (stereo partly drawn) [N-(2-isopropyl-4-phenyl-butyryl)-L-prolinal, reference compound], the IC50 against prolyl endopeptidase [1] is above 5000 nM.

`COc1ccc(CCCC(=O)N2CCC[C@H]2C=O)cc1` [N-[4-(4-methoxyphenyl)bu-tyryl]-L-prolinal, reference compound] gave an IC50 on prolyl endopeptidase [1] of 21000 nM.

Take `O=C(NCC(=O)N1CCC[C@H]1C(=O)CCl)OCc1ccccc1` [N-benzyloxycarbonyl-glycyl-L-prolyl-chloromethane] (Cbz-Gly-Pro-CH2Cl): the “inhibition of prolyl endopeptidase (in words)” value in the assay with prolyl endopeptidase [2] is reported as “strongly inhibit prolyl endopeptidase”.

Consider “N-[9-(4-phenylbutyl)cyclo-hexane carbonyl]-L-prolinal [2(a)]”, for which, on prolyl endopeptidase [1] (Table I, formula (Ia), purified from bovine brain, pH 7.5, 37° C., read-out: Concentration for 50% inhibition IC50), the IC50 came out at 430 nM.
